Measured values: patent US6207399A, “Methods of determining endogenous thrombin potential (ETP) and thrombin substrates for use in said methods” (Hemker; Hendrik Coenraad, priority 1995, dated 2001)

Assays:
[1] = system: thrombin generation in tissue factor triggered plasma; experiment: Manual determination of thrombin generation in plasma (subsampling method) and calculated prothrombinase activity; format: biochemical, human
Procedure: Manual determination of thrombin generation in plasma: Extrinsic pathway: To 480 μL defibrinated plasma were added: 172 μL buffer A which contains the substrate at concentrations between 0 to 2000 μM and 20 μL of a 54 μM phospholipid solution (final concentration: 1.5 μM). After incubation of 4 min at 37° C., 24 μL tissue factor (undiluted) was added. Thrombin formation started at zero time by adding 24 μL of a 0.5 M CaCl2 solution (final concentration: 16.67 mM). At regular time intervals of 12 s samples of 10 μL were subsampled as described above. From the amidolytic activities thus obtained, the thrombin generation curve can be drawn. […] Intrinsic pathway: To 480 μL defibrinated plasma were added: 168 μL buffer A which contains the substrate at concentrations between 0 to 1000 μM and 48 μL Actin FS (undiluted). This mixture was intensively mixed and incubated for 4 min at 37° C. Thrombin generation was started at zero time by adding 24 μL of a 0.5 M CaCl2 solution (final concentration: 16.67 mM).
Influence of the substrate on the prothrombinase-complex: With the obtained decay constants and from the curves obtained by the subsampling method we calculated the course of prothrombin conversion and the course of prothrombinase concentration.
Manual determination of thrombin generation in plasma: Extrinsic pathway: To 480 μL defibrinated plasma were added: 172 μL buffer A which contained the substrate at concentrations between 0 to 2000 μM and 20 μL of a 54 μM phospholipid solution (final concentration: 1.5 μM). After incubation for 4 min at 37° C., 24 μL tissue factor (undiluted) was added. Thrombin formation started at zero time by adding 24 μL of a 0.5 M CaCl2 solution (final concentration: 16.67 mM). At regular time intervals of 12 s samples of 10 μL were subsampled as described above. From the amidolytic activities thus obtained, the thrombin generation curve can be drawn.
Influence of the substrate on the prothrombinase-compzex: With the obtained decay constants and from the curves obtained by the subsampling method we calculated the course of prothrombin conversion and the course of prothrombinase concentration.

euglobulin thrombin = target: T1, euglobulin thrombin (Homo sapiens, UniProt P00734); experiment: Decay constants of thrombin in plasma; format: biochemical; conditions: [S] 25 mM in plasma
T1 construct: The euglobulin thrombin fraction was prepared from defibrinated human plasma; from tissue; host or cells: defibrinated human plasma (euglobulin fraction, acid precipitation, method of Josso and Prou-Wartelle)
Procedure: (§1) To this mixture was added 10 μL of a thrombin preparation to achieve a final concentration of 100 nM. At regular time intervals (5-10 s) 10 μL samples were subsampled into 490 μL buffer B which contained 200 μM of S2238 to determine thrombin activity. After 2 min the reaction was stopped by adding 300 μL 1M citric acid. The moment of sampling and stopping were recorded on a personal computer with pushbutton-equipped pipettes. The optical density was then read at 405 nm and the obtained amidolytic activities were used to calculate the decay constants. The obtained decay constant is the sum of the decay constants of the reaction of thrombin with antithrombin III (k1) and α2 -macroglobulin (k2).
as §1, with “Decay constants of thrombin in plasma: To 120 μL defibrinated plasma was added: 50 μL of buffer A which contained the substances to be tested. To” for “To”, “was” for “was then”

[2] = system: thrombin formation in plasma; experiment: Continuous registration of the thrombin generation curve (continuous assay of ETP); format: biochemical, human; conditions: 25 mM hydroxylamine
Procedure: Continuous registration of the thrombin generation curve: Extrinsic pathway: In a polystyrene microcuvette were added: 400 μL defibrinated plasma, 20 μL of a 45 μM phospholipid solution (final concentration: 1.5 μM), 140 μL of buffer A which contains the substrate at the desired final concentration (100-2000 μM). After 4 min of incubation at 37° C., 20 μL tissue factor (undiluted) was added. Thrombin generation was started by adding 20 μL of a 0.5 M CaCl2 solution (final concentration: 16.67 mM); during the measurement the temperature was kept at 37° C. The optical density was monitored at 405 nm. From the obtained optical density curve, the first derivative was calculated. […] The optical density was measured at 37° C. at 405 nm during 20 min.
Continuous registration of the thrombin generation curve: Extrinsic pathway: In a polystyrene microcuvette were added: 400 μL defibrinated plasma, 20 μL of a 45 μM phospholipid solution (final concentration: 1.5 μM) and 140 μL of buffer A which contains the substrate at the desired final concentration (500 μM). […] The optical density was monitored at 405 nm. From the obtained optical density curve, the first derivative was calculated giving the enzyme concentration during the measurement. […] The optical density was measured at 37° C. at 405 nm during 20 min. […] The optical density was measured at 37° C. at 405 nm during 25 min.

## NO [hydroxylamine, reference compound]
[1]; [S] 25 mM in plasma
  k2,M : k2 determined by the subsampling method: 0.057 min⁻¹
[1]; calculated from decay constants and manual thrombin generation curves
  influence on the prothrombinase complex / coagulation cascade: did not influence the coagulation cascade
[1]; hydroxylamine 25 mM
  AA: amidolytic activity (maximum): 383.88 mOD/min
  PT: prothrombinase concentration (maximum): 1227 mOD/min
  T: thrombin concentration (maximum): 378.03 mOD/min
  t: time point at which maximum of amidolytic activity is achieved: 72 s
  t: time point at which maximum of prothrombinase concentration is achieved: 36 s
  t: time point at which maximum of thrombin concentration is achieved: 72 s
Euglobulin thrombin
  (k1,corr) = k1,corr /1.856: 0.585 min⁻¹
  k1,corr : k1 after correcting for k2,M and 0.170: 1.085 min⁻¹
  k1 : AT-III dependent decay of thrombin: 1.253 min⁻¹
  k2 : α2 M dependent decay of thrombin: 0.059 min⁻¹
  koverall: 1.312 min⁻¹
  t1/2: 31.70 s
[2]
  residual amidolytic activity of the α2 M-thrombin complex: substantially reduced
